Literature values, collected in patent US20050215535A1, “Sequential SPRM/progestin treatment” (priority 2004, published 2005).

What was measured:
[1] = tested on: premenopausal women
[2] = target: T1, progesterone receptor (Oryctolagus cuniculus, UniProt P06186); conditions: rabbit model; for McPhail score: scale of 0-4
T1 construct: SPRMs score lower than progesterone in the McPhail bioassay in rabbits; from tissue; host or cells: living rabbit (in vivo; the endometrium as read-out tissue is own knowledge of the McPhail test)
T1 sequence (P06186 1-930): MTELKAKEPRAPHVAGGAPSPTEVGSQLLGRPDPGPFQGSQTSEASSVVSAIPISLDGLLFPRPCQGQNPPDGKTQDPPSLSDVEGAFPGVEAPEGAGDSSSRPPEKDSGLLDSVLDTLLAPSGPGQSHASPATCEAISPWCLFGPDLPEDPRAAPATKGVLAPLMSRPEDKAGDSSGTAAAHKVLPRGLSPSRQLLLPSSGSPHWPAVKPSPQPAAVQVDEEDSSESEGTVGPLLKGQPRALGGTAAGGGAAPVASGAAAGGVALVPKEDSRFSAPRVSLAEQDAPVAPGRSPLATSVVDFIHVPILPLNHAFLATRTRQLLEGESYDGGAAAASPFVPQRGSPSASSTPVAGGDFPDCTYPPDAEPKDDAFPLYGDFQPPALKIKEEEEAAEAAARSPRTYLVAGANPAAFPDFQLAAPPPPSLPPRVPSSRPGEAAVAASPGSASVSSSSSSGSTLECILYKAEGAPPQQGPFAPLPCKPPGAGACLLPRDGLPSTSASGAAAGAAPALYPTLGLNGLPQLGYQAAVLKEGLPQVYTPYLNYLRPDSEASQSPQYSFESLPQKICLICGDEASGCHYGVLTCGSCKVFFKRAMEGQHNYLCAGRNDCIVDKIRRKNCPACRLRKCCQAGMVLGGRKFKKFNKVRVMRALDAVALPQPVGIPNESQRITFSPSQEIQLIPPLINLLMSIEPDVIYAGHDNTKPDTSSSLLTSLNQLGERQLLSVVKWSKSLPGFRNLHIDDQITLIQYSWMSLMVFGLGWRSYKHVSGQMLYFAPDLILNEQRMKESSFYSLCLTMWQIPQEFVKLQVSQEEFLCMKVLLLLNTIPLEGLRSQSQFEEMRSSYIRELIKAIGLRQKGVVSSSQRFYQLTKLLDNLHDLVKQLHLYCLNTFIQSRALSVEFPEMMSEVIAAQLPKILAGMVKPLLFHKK

agonist activity in the McPhail test [2] | McPhail score [2] | Compound | time to withdrawal bleeding (start of spontaneous menstrual cycle) after stopping the SPRM treatment ([1]; all subjects) | resumption of menstruation after cessation of treatment ([1]; majority of subjects)
 |  | COC[C@]1(OC)CC[C@H]2[C@@H]3CCC4=CC(=O)CCC4=C3[C@@H](c3ccc(/C=N/O)cc3)C[C@@]21C [J867] | up to 90 days | ≤ 30 days
do not show any agonist activity | less than 0.5 | CC#C[C@]1(O)CC[C@H]2[C@@H]3CCC4=CC(=O)CCC4=C3[C@@H](c3ccc(N(C)C)cc3)C[C@@]21C [RU486, mifepristone] |  | 
do not show any agonist activity |  | CN(C)c1ccc([C@H]2C[C@]3(C)[C@@H](CC[C@]3(O)CCCO)[C@@H]3CCC4=CC(=O)CCC4=C32)cc1 [onapristone] |  | 
 | 4 | CC(=O)[C@H]1CC[C@H]2[C@@H]3CCC4=CC(=O)CC[C@]4(C)[C@H]3CC[C@]12C [progesterone] |  | 
